# Patent US20160030391A1, “METHODS AND COMPOSITIONS FOR IMPROVING COGNITIVE FUNCTION” (THE JOHNS HOPKINS UNIVERSITY, priority 2013, published 2016)
# Assays:
# [1] = test system: Memory-impaired aged rats; assay: Radial Arm Maze task, 2-hr delay, acute brivaracetam or seletracetam; assay type: in vivo, rat; conditions: 0.0625-4 mg/kg i.p. 30-40 min prior to test sessions; repeated measures ANOVA
# Method: (§1) The radial arm maze experiments used acute administration of seletracetam (0-4 mg/kg), brivaracetam (0-4 mg/kg), or saline vehicle given by intraperitoneal injection (in a volume of 1 ml/kg) 30-40 min prior to test sessions. In the chronic treatment experiment, memory-impaired aged rats were implanted subcutaneously in the intrascapular region with osmotic mini-pumps (ALZET, Durect Corporation, Cupertino, Calif.) with brivaracetam (2 mg/kg/day) or saline vehicle starting two weeks prior to assessment in the water maze.
# A radial arm maze (RAM) task was used to assess effects of acute drug treatment with seletracetam and brivaracetam. This protocol allowed within-subject assessment across drugs at different doses. The radial maze consisted of eight arms projecting from each side of an octagonal center platform, with a food well located at the distal end of each arm. Plexiglas blocks could be positioned to prevent entry into any arm. Extra-maze cues were provided in the room surrounding the maze and illumination was provided by an overhead light.
# Pre-training, as described in detail in Chappell et al. Neuropharmacology 37: 481-487, (1998), consisted of habituation, standard win-shift training, and win-shift training with delays interposed between information and memory test phases. […]
# [2] = test system: Memory-impaired aged rats; assay: water maze probe test after chronic brivaracetam (osmotic mini-pumps); assay type: in vivo, rat; conditions: brivaracetam 2 mg/kg/day, 14 days
# Method: as §1
# Rats were trained and tested in a novel water maze environment to assess the effect of drug treatment. The water maze used here was housed in a different building and was surrounded by curtains with a novel set of patterns relative to the maze used for initial assessment of cognitive status. The training protocol consisted of 6 trials per day for 2 days to locate a submerged escape platform. On each trial, a rat was released in the maze from one of four equally spaced starting positions around the perimeter of the pool. The starting position varied from trial to trial. […] The rat was then removed from the platform and placed in a holding cage for another 40 s before the next trial. Approximately 24 hr after the last training trial, a probe test in the absence of the escape platform was given to assess spatial memory.
# [3] = test system: ventral tegmental dopamine (DA) neurons of MAM rats; conditions: cited from earlier work
# [4] = test system: MAM-treated rats; conditions: cited from earlier work
# [5] = test system: HPC neurons in saline-treated and MAM-treated animals; conditions: cited from earlier work
structure (smiles),measurement,setting,value
CCC[C@@H]1CC(=O)N([C@@H](CC)C(N)=O)C1 [brivaracetam],"number of errors in the retention phase after the 2-hr delay, effect of dose",[1],significant effect as a function of dose
same,spatial bias for the target quadrant compared to the other quadrants,[2],significant spatial bias
same,time in the target annulus vs vehicle-treated rats,[2],significantly more time
same,time in the target quadrant vs vehicle-treated rats,[2],significantly more time
CC[C@@H](C(N)=O)N1C[C@H](C=C(F)F)CC1=O [seletracetam],"number of errors in the retention phase after the 2-hr delay, effect of dose",[1],significant effect as a function of dose
"NC1=N[C@H](O)[C@H]2[C@H]3O[C@]4(O)O[C@@H]([C@@H](O)[C@@]2(N1)[C@@H]4O)[C@]3(O)CO [TTX, tetrodotoxin]",elevated DA neuron population activity,"[3]; rat, in vivo",completely reversed
same,augmented amphetamine-induced locomotor behavior,"[4]; rat, in vivo",normalized
C#Cc1ccc2c(c1)C(c1ccccc1F)=N[C@H](C)c1c(C(=O)OCC)ncn1-2 [SH-053-2′F—R—CH3],number of spontaneously active DA neurons in the ventral tegmental area (VTA) of MAM rats,[3]; administered systemically and directly infused into the ventral HPC,reduces
same,increased locomotor response to amphetamine in MAM-treated rats,[4]; following the α5GABAAR PAM treatment,reduced
same,cortical-evoked responses of HPC neurons,[5],diminished
